# Reference: patent publication US20030069307A1, “2-(3,4-Dihydroxyphenyl)ethyl-substituted carbonic acid derivatives and their use” (priority 2001, published 2003)
# Experiments:
# [1] = DPPH test for the elimination of free radicals (activity as free-radical scavenger); details: DPPH 100 μmol/l in methanol, absorption at 515 nm; smaller = better
# Experimental: The activity of the exemplary compounds as free-radical scavengers was compared with conventional free-radical scavengers. For this, the DPPH (1,1-diphenyl-2-picryl-hydrazyl) test for the elimination of free-radicals was employed (Lebensm.-Wiss. u. Technol., 1995, vol. 28, pp. 25 to 30).
# DPPH was dissolved in methanol to give a concentration of 100 μmol/l. A series of dilutions of the example compounds, vitamin C, α-tocopherol and 3,5-ditert-butyl-4-hydroxytoluene were prepared in methanol. Methanol served as control. 2500 μl of the DPPH solution were mixed with 500 μl of each test solution and the decrease in absorption at 515 nm was read off until the decrease was less than 2% per hour. The activity of the test substances as free-radical scavengers was calculated from the following equation:
# Activity as free-radical scavenger (%)=100−(absorption of the test compounds)/absorption of the control)×100.
# From activity as free-radical scavenger (%) in a number of dilutions of test compounds, for each test compound the effective relative concentration EC50 (based on the initial concentration of DPPH, EC=c (test compound)/c(DPPH)) of a test compound was calculated at which the free-radical DPPH was eliminated by 50%. The smaller the EC50 values, the better is the free-radical scavenging action.
# [2] = Rancimat accelerated autoxidation of lipids by air, soya bean oil; details: antioxidant power AP = IP(with test solution)/IP(control sample), soya bean oil purified on alumina type N, 0.05% test substance, higher = better
# Experimental: (§1) The activity of the example compounds as antioxidants was compared with that of conventional antioxidants. The test system used was accelerated autoxidation of lipids by air with or without antioxidants, using the Rancimat apparatus (Deutsche Lebensmiftel-Rundschau 1974, vol. 70, pp. 57 to 65) (Rancimat is a registered trademark of Metrohm AG, Herisau, Switzerland).
# (§2) The example compounds, vitamin C, α-tocopherol and 3,5-ditert-butyl-4-hydroxytoluene were dissolved in methanol or acetone and 100 μl of the respective test solution were added to a prepared oil sample of 3 g. Only solvent was added to a control sample. A constant dry air stream (20 I/h) was blown through the heated oil sample containing the test solution and the volatile oxidation products (principally short-chain fatty acids, such as formic acid or acetic acid) were collected in a receiver containing water. The conductivity of this aqueous solution was measured continuously and documented. The oxidation of (unsaturated) fats proceeds here only very slowly for a period, and then suddenly increases. The time until the increase is termed the induction period (IP).
# (§3) From the equation below, the antioxidant power (AP) was obtained:
# (§4) AP=IP(with test solution)/IP(control sample).
# (§5) The higher the AP, the higher is the antioxidant activity.
# [3] = Rancimat accelerated autoxidation of lipids by air, squalene; details: antioxidant power AP = IP(with test solution)/IP(control sample), squalene purified on alumina type N, stabilized with 1 ppm α-tocopherol
# Experimental: as §1, §2, §3, §4, §5
# The results for the experiment at 80° C. in squalene which was purified on alumina type N and stabilized with 1 ppm of α-tocopherol are shown in Table 7: […]
Compound,"EC50 (effective relative concentration, c(test compound)/c(DPPH), at which the free-radical DPPH was eliminated by 50%) [1] [mol/mol]",AP in soya bean oil at 100° C. containing 0.05% of test substance [2],AP in squalene at 80° C. containing 0.005% test substance [3]
"O=C1O[C@H]([C@@H](O)CO)C(O)=C1O [Vitamin C, reference compound]",0.27,1.2,0.7
"CC(C)[C@@H]1CC[C@@H](C)C[C@H]1OC(=O)NCCc1ccc(O)c(O)c1 [Example 2, N-[2-(3,4-Dihydroxyphenyl)ethyl]-O-[(1R,3R,4S)-menthyl]urethane]",0.35,7.1,25
"COC(=O)NCCc1ccc(O)c(O)c1 [Example 1, N-[2-(3,4-Dihydroxyphenyl)ethyl]-O-methylurethane]",0.27,15.3,76
"Cc1cc(C(C)(C)C)c(O)c(C(C)(C)C)c1 [3,5-Ditert-butyl-4-hydroxytoluene, reference compound]",0.24,4.8,38
"CCCCCCNC(=S)NCCc1ccc(O)c(O)c1 [Example 5, N-[2-(3,4-Dihydroxyphenyl)ethyl]-N′-hexylthiourea]",,14.4,59
"CCCCC(CC)COC(=O)NCCc1ccc(O)c(O)c1 (centres unmarked) [Example 4, N-[2-(3,4-Dihydroxyphenyl)ethyl]-O-(2-ethylhexyl)urethane]",0.25,7.6,50
"CCCCCCOC(=O)NCCc1ccc(O)c(O)c1 [Example 3, N-[2-(3,4-Dihydroxyphenyl)ethyl]-O-hexylurethane]",0.24,9.8,46
"Cc1c(C)c2c(c(C)c1O)CC[C@@](C)(CCC[C@H](C)CCC[C@H](C)CCCC(C)C)O2 [α-Tocopherol, reference compound]",0.25,5.1,39
"CCCCCCNC(=O)NCCc1ccc(O)c(O)c1 [Example 6, N-[2-(3,4-Dihydroxyphenyl)ethyl]-N′-hexylurea]",0.20,26,60
